Legend:
[1] = system: glycosaminoglycan synthesis; assay: Glycosaminoglycan synthesis; format: cell-based; conditions: positive control, concentration not given
procollagen I = assay: Procollagen I production by fibroblasts (slot blot); format: cell-based, human; conditions: positive control, head says (0.01%)
Procedure: This example measured production of procollagen I by fibroblasts in response to treatment with gum mastic in solvent solutions, as well as control solutions.
Gum mastic solubilized in ethanol solvent (“gum mastic”), and obtained from Sigma were tested.
Neonatal human dermal fibroblasts were purchased from Clonetics Corp., San Diego, Calif. All materials for cell culture were purchased from Life Technologies, NY and used in passages 5-10. Cells were seeded at a density of approximately 7,500/well in the inner 48 wells of a 96-well plate in a medium containing DMEM (Dulbecco's Modified Eagle's Medium), high-glucose supplemented with 2 mM L-glutamine, 10% fetal bovine serum, and antibiotic and antimycotic solutions). Cells were then grown to confluence for 2 days. At confluence, the medium was removed and cells were washed with serum-free DMEM, and each well dosed with 200 μl of a solution of gum mastic in serum-free DMEM. Each dosing was replicated in the total of six wells. […]
The membrane was stained until color developed and the reaction stopped with 2 washes for 10 minutes in tap water. […] Blot was scanned on Bio-Rad GS-700 Image Analysis densitometer and volume (OD*mm^2) of color/slot determined using molecular analysis software. Fold increase was calculated as a ratio of densitometer reading for cells treated with a gum mastic concentration over control.

human sebocytes = assay: Inhibition of sebocyte lipogenesis (14C-acetate incorporation); format: cell-based; conditions: 0.00035%; 14C-acetate label in sebocytes, 20 h + 4 h incubation
Procedure: Secondary cultures of human sebocytes obtained from an adult […] were grown in 48-well tissue culture plates (Costar Corp.; Cambridge, Mass.) until confluent. Sebocyte growth medium consisted of Clonetics Keratinocyte Basal Medium (KBM) supplemented with 14 μg/ml bovine pituitary extract, 0.4 μg/ml hydrocortisone, 5 μg/ml insulin, 10 ng/ml epidermal growth factor, 1.2×10^−10 M cholera toxin, 100 units/ml penicillin, and 100 μg/ml streptomycin. All cultures were incubated at 37° C. in the presence of 7.5% CO2. Medium was changed three times per week.
On the day of experimentation, the growth medium was removed and the sebocytes washed three times with sterile Dulbecco's Modified Eagle Medium (DMEM; phenol red free). Fresh DMEM was added to each sample (triplicates) with 5 μL of gum mastic solubilized in ethanol. Controls consisted of addition of ethanol alone to phenol red. Each plate was returned to the incubator for 20 hours followed by the addition of ^14C-acetate buffer (5 mM final concentration, 56 mCi/mmol specific activity). […] Radioactive label remaining in the sebocytes was harvested and counted using a Beckman scintillation counter. […]
Controls consisted of ethanol alone and phenol red, which has estrogen-like activity. Statistical significance was calculated using the student's T-test.

| Compound | Fold increase over control [1] | Average OD Reading ([1]; control 4531.8) | Fold increase over control (procollagen I) | Average OD Reading (procollagen I; densitometer volume OD*mm^2, control 5400.5) | % Reduction (human sebocytes) |
| --- | --- | --- | --- | --- | --- |
| TGF-b | 1.4 fold | 6382.3 | 1.4 fold | 7499.8 | – |
| O=S1(=O)OC(c2ccc(O)cc2)(c2ccc(O)cc2)c2ccccc21 [Phenol Red] | – | – | – | – | 29.1% |

From US6623728B2, “Cosmetic skin care compositions and containing gum mastic” (Unilever Home & Personal Care USA Division of Conopco, Inc., priority 2000, dated 2003)
